Reference: patent US20140350273A1, “PEDIATRIC USES OF CABAZITAXEL” (AVENTIS PHARMA S.A., priority 2012, published 2014)
Like-named read-outs stand apart in the source and are kept apart here.

Tested on: human Ewing's sarcoma DM101
Format: in vivo
Conditions: for Tumor Volume Data (Day 11) Median / ΔT/ΔC %: day 11; for MTTE / T-C: volume endpoint 2000 mm^3; for tumor volume changes from baseline, Median +/− MAD: nude mice bearing DM101 Ewing's sarcoma
Description: The resultant solution contains 10 mg/mL of cabazitaxel. Stock solution of cabazitaxel was then diluted in 0.9% sodium chloride.
This efficacy may be quantified, for example, as changes in tumor volume for each treated (T) and control (C) group, which are calculated for each animal and each day by subtracting the tumor volume on the day of first treatment (staging day) from the tumor volume on the specified observation day. This allows calculating the tumor growth inhibition: ΔT/ΔC=(median delta T/median delta C)×100. Individual tumor volume changes from baseline are thereafter analyzed by a non-parametric two-way ANOVA-TYPE (with factors: group and repeated days) followed by a post-hoc contrasts analysis, with Bonferroni-Holm adjustment for multiplicity, comparing all treated groups to the control group. […] A probability less than 5% (p<0.05) was considered as significant.
Based on the National Cancer Institute (NCl) standards, a ΔT/ΔC≦40% is the minimal level required to declare activity.
This efficacy may also be quantified by the number of tumor regressions observed after therapy. Individual mice reporting a tumor volume ≦50% of the Day 0 measurement for two consecutive measurements over a seven day period were considered partial responders (PR). Individual mice lacking palpable tumors (<4×4 mm^2 for two consecutive measurements over a seven day period) were classified as complete responders (CR); a CR that persisted until study completion was considered a tumor-free survivor (TFS).
Efficacy could also be determined at study completion, using tumor growth delay (T-C) in days, which is calculated using the median time to endpoint (MTTE) value for each treatment (T) group versus control (C). A Log Rank multiple comparison test with Bonferroni-Holm adjustment for multiplicity was applied on individual TTE to compare the treated groups to the control group.
The animals subjected to the experiment are subcutaneously grafted unilaterally with approximately 30 mg of a tumor fragment from low passage pediatric patient-derived tumor xenografts. The animals are implanted with a human patient-derived pediatric tumor xenografted in immuno-compromised mice (Harlan; nu/nu). Several days post tumor implantation, mice are randomized according to their tumor burden to the different groups of treatments and controls. The agents are dosed intravenously at 5.8, 9.3, 15 or 24.2 mg/kg every 4 days for a total of 3 doses (q4d×3) to mice bearing a tumor burden at start of therapy (day 0) ranged from 125 to 250 mm^3.
Beginning Day 0, animals were observed daily and weighed twice weekly using a digital scale; data including individual and mean gram weights (Mean We±SD), mean percent weight change versus Day 0 were recorded for each group. Animal deaths were recorded daily and designated as drug-related (D), technical (T), tumor related (B), or unknown (U) based on weight loss and gross observation; single agent or combination groups reporting a mean >20% for a period of 7 days and/or >10% mortality were considered above the maximum tolerated dose (MTD) for that treatment on the evaluated regimen.
The selected tumor model, DM101, was a low passage patient-derived tumor xenograft derived from an Ewing's sarcoma taken from the bone of a patient.
The following end points were used: • Toxicity was declared at dosages inducing ≧20% body weight loss or ≧10% drug death; • Antitumor efficacy was determined by calculating the ΔT/ΔC value in percent on day 11 post treatment initiation, according to the above mentioned formula; • Individual tumor volume changes from baseline were analyzed by a non-parametric two-way ANOVA-TYPE (with factors: group and repeated day from 4 to 14) followed by a post-hoc contrasts analysis, with Bonferroni-Holm adjustment for multiplicity, comparing all treated groups to the control group on day 11. […] The volume endpoint for T-C calculations was chosen to be 2000 mm^3.

CO[C@H]1C(=O)[C@]2(C)[C@@H](OC)C[C@H]3OC[C@@]3(OC(C)=O)[C@H]2[C@H](OC(=O)c2ccccc2)[C@]2(O)C[C@H](OC(=O)[C@H](O)[C@@H](NC(=O)OC(C)(C)C)c3ccccc3)C(C)=C1C2(C)C [Cabazitaxel, 4α-acetoxy-2α-benzoyloxy-5β,20-epoxy-1β-hydroxy-7β,10β-dimethoxy-9-oxo-11-taxen-13α-yl (2R,3S)-3-tert-butoxycarbonyl-amino-2-hydroxy-3-phenylpropionate]
#CR (5.8 mg/kg i.v./q4d × 3): 0/0/0
#PR (5.8 mg/kg i.v./q4d × 3): 0/0/0
#TFS (5.8 mg/kg i.v./q4d × 3): 0/0/0
Drug Deaths Total (5.8 mg/kg i.v./q4d × 3): 0
Tumor Volume Data (Day 11) Median (5.8 mg/kg i.v./q4d × 3): 204 mm^3
ΔT/ΔC % (5.8 mg/kg i.v./q4d × 3): 8.9%
MTTE (5.8 mg/kg i.v./q4d × 3): 34.8 days
T-C (5.8 mg/kg i.v./q4d × 3): 17.9 days
tumor volume changes from baseline, Median +/− MAD (5.8 mg/kg, DAY 4): 0 +/− 0 (n = 9)
tumor volume changes from baseline, Median +/− MAD (5.8 mg/kg, DAY 7): 34 +/− 34
tumor volume changes from baseline, Median +/− MAD (5.8 mg/kg, DAY 11): 73 +/− 73
tumor volume changes from baseline, Median +/− MAD (5.8 mg/kg, DAY 14): 155 +/− 136
tumor volume changes from baseline, Median +/− MAD (5.8 mg/kg, DAY 17): 306 +/− 152
tumor volume changes from baseline, Median +/− MAD (5.8 mg/kg, DAY 20): 489 +/− 199
tumor volume changes from baseline, Median +/− MAD (5.8 mg/kg, DAY 25): 696.5
tumor volume changes from baseline, Median +/− MAD (5.8 mg/kg, DAY 28): 1097 +/− 117
tumor volume changes from baseline, Median +/− MAD (5.8 mg/kg, DAY 32): 1396
#CR (9.3 mg/kg i.v./q4d × 3): 1/1/1
#PR (9.3 mg/kg i.v./q4d × 3): 1/1/1
#TFS (9.3 mg/kg i.v./q4d × 3): 1/1/1
Drug Deaths Total (9.3 mg/kg i.v./q4d × 3): 0
Weight Nadir % (9.3 mg/kg i.v./q4d × 3): −2%
Weight Nadir Day (9.3 mg/kg i.v./q4d × 3): 7
Tumor Volume Data (Day 11) Median (9.3 mg/kg i.v./q4d × 3): 255 mm^3
ΔT/ΔC % (9.3 mg/kg i.v./q4d × 3): 9.4%
MTTE (9.3 mg/kg i.v./q4d × 3): 23.9 days
T-C (9.3 mg/kg i.v./q4d × 3): 7 days
tumor volume changes from baseline, Median +/− MAD (9.3 mg/kg, DAY 4): 0 +/− 33
tumor volume changes from baseline, Median +/− MAD (9.3 mg/kg, DAY 7): 13 +/− 41
tumor volume changes from baseline, Median +/− MAD (9.3 mg/kg, DAY 11): 77 +/− 118
tumor volume changes from baseline, Median +/− MAD (9.3 mg/kg, DAY 14): 188 +/− 241
tumor volume changes from baseline, Median +/− MAD (9.3 mg/kg, DAY 17): 498 +/− 485
tumor volume changes from baseline, Median +/− MAD (9.3 mg/kg, DAY 20): 766 +/− 713
tumor volume changes from baseline, Median +/− MAD (9.3 mg/kg, DAY 25): 1095
tumor volume changes from baseline, Median +/− MAD (9.3 mg/kg, DAY 28): 182.5 +/− 248
tumor volume changes from baseline, Median +/− MAD (9.3 mg/kg, DAY 32): 385 +/− 414
#CR (15 mg/kg i.v./q4d × 3): 9
#PR (15 mg/kg i.v./q4d × 3): 9
#TFS (15 mg/kg i.v./q4d × 3): 7
Drug Deaths Total (15 mg/kg i.v./q4d × 3): 0
Weight Nadir % (15 mg/kg i.v./q4d × 3): −3%
Weight Nadir Day (15 mg/kg i.v./q4d × 3): 7
Tumor Volume Data (Day 11) Median (15 mg/kg i.v./q4d × 3): 0 mm^3
ΔT/ΔC % (15 mg/kg i.v./q4d × 3): −16%
MTTE (15 mg/kg i.v./q4d × 3): >61 days
T-C (15 mg/kg i.v./q4d × 3): >44.1 days
CR (15 mg/kg q4d×3 IV): 9/9
TFS (15 mg/kg q4d×3 IV): 7/9
tumor volume changes from baseline, Median +/− MAD (15 mg/kg, DAY 4): 0 +/− 0 (n = 9)
tumor volume changes from baseline, Median +/− MAD (15 mg/kg, DAY 7): −113 +/− 32
tumor volume changes from baseline, Median +/− MAD (15 mg/kg, DAY 11): −131 +/− 47
tumor volume changes from baseline, Median +/− MAD (15 mg/kg, DAY 14): −131 +/− 47
tumor volume changes from baseline, Median +/− MAD (15 mg/kg, DAY 17): −131 +/− 47
tumor volume changes from baseline, Median +/− MAD (15 mg/kg, DAY 20): −131 +/− 47
tumor volume changes from baseline, Median +/− MAD (15 mg/kg, DAY 25): −131 +/− 47
tumor volume changes from baseline, Median +/− MAD (15 mg/kg, DAY 28): −131 +/− 47
tumor volume changes from baseline, Median +/− MAD (15 mg/kg, DAY 32): −131 +/− 40
#CR (24.2 mg/kg i.v./q4d × 3): 9
#PR (24.2 mg/kg i.v./q4d × 3): 9
#TFS (24.2 mg/kg i.v./q4d × 3): 8
Drug Deaths Total (24.2 mg/kg i.v./q4d × 3): 0
Weight Nadir % (24.2 mg/kg i.v./q4d × 3): −5%
Weight Nadir Day (24.2 mg/kg i.v./q4d × 3): 11
Tumor Volume Data (Day 11) Median (24.2 mg/kg i.v./q4d × 3): 0 mm^3
ΔT/ΔC % (24.2 mg/kg i.v./q4d × 3): −18.3%
MTTE (24.2 mg/kg i.v./q4d × 3): >61 days
T-C (24.2 mg/kg i.v./q4d × 3): >44.1 days
CR (24.2 mg/kg q4d×3 IV): 9/9
TFS (24.2 mg/kg q4d×3 IV): 8/9
tumor volume changes from baseline, Median +/− MAD (24.2 mg/kg, DAY 4): −19 +/− 19
tumor volume changes from baseline, Median +/− MAD (24.2 mg/kg, DAY 7): −150 +/− 52
tumor volume changes from baseline, Median +/− MAD (24.2 mg/kg, DAY 11): −150 +/− 38
tumor volume changes from baseline, Median +/− MAD (24.2 mg/kg, DAY 14): −150 +/− 38
tumor volume changes from baseline, Median +/− MAD (24.2 mg/kg, DAY 17): −150 +/− 38
tumor volume changes from baseline, Median +/− MAD (24.2 mg/kg, DAY 20): −150 +/− 38
tumor volume changes from baseline, Median +/− MAD (24.2 mg/kg, DAY 25): −150 +/− 38
tumor volume changes from baseline, Median +/− MAD (24.2 mg/kg, DAY 28): −150 +/− 38
tumor volume changes from baseline, Median +/− MAD (24.2 mg/kg, DAY 32): −150 +/− 38
antitumor activity compared with docetaxel (conclusion of example 6, 15 or 24.2 mg/kg, same or equi-toxic dose): significantly more active than docetaxel
